# Measured values reported in patent publication EP0363671A2, “Use of ACE inhibitors against the formation of neo-intima after vascular infliction” (F. HOFFMANN-LA ROCHE AG, priority 1988, dated 1990).
# Tests used:
# [1] = Lowering of systolic blood pressure by the dose mixed into the feed; assay type: in vivo, Ratten, Stamm: RORO; settings: average daily intake 10 mg/kg mixed into feed
# Protocol: (§1) Die Tiere der Behandlungsgruppe erhielten 20 Tage lang soviel Cilazapril dem Futter beigemischt, dass die tägliche Cilazaprilaufnahme durchschnittlich 10 mg/kg betrug. Es handelt sich um eine Dosierung, die den systolischen Blutdruck um ca. 25% senkte. Die Kontrolltiere erhielten das gleiche Laborfutter ohne Zusatz. Die Ballonisierung der Arteria carotis communis wurde 6 Tage nach der ersten Gabe von Cilazapril durchgeführt. Die Tiere wurden mit Aetherinhalation und subcutaner Verabreichung von 200 mg/kg Hexobarbital-Na narkotisiert. Die distale linke Arteria carotis communis und das Bifurkationsgebiet von Carotis externa und interna wurden freigelegt. Der FOGARTY-Katheter (12-060-2F, Edwards Laboratories, Santa Anna, CA, USA) wurde durch die Arteria carotis externa in die Arteria carotis communis bis zum Aortenbogen eingeführt, der Ballon mit Wasser gefüllt (Füllungsvolumen ca. 0,01-0,015 ml) und gegen einen leichten Widerstand zurückgezogen. Dieses Procedere wurde zweimal wiederholt. Die Arteria carotis externa wurde ligiert und die Wunde vernäht. Die Operateure hatten keine Kenntnis, ob es sich um behandelte oder unbehandelte Tiere handelte.
# [2] = system: Neointima in der ballonisierten Arteria carotis; assay: Neointima formation after balloon catheter injury (ballooning) of the carotid artery, morphometry of cross-sections 14 days later; assay type: in vivo, Ratten, Stamm: RORO
# Source text: Eine Arterie wird mit Hilfe eines Ballonkatheters, der durch das Gefässlumen geschoben wird, von innen verletzt (Ballonisierung). Dabei wird die innerste Zellschicht, das Endothel, entfernt und die Muskelzellen der Media leicht geschädigt. Die Muskelzellen werden dadurch zur Proliferation und Migration in die Intima angeregt. […] Das Ausmass der Neointimabildung wird anschliessend an Querschnitten durch die Arterie mit Hilfe morphometrischer Methoden ausgemessen.
# Die Tiere wurden randomisiert in eine Kontrollgruppe und in eine Behandlungsgruppe eingeteilt. Es wurden je 11 Tiere als Kontroll- bzw. behandelte Tiere eingesetzt.
# as §1, with “Es handelt sich um eine Dosierung, die den systolischen Blutdruck um ca. 25% senkte.” left out
# 14 Tage nach der Ballonisierung wurden die Ratten mit Aether anaesthesiert und die Carotiden durch Perfusion mit Fixationsmittel (2,5% Glutaraldehyd in 0,1 M Phosphatpuffer, pH 7,4), fixiert. Hierzu wurde eine Sonde durch den linken Herzventrikel in die aufsteigende Aorta geführt (Einfluss) und eine zweite Sonde durch den rechten Ventrikel in den Vorhof geschoben (Abfluss). Das Gefässsystem wurde zunächst mit 10 ml PBS ("phosphate buffered saline"; gepufferte isotonische NaCI-Lösung) gespült und dann 15 min lang mit Fixationsmittel bei einem Druck von 90 mm Quecksilbersäule fixiert. Anschliessend wurden sowohl die linke (ballonisierte) als auch die rechte (nicht-ballonisierte) Arteria carotis (Kontrolle) herauspräpariert, von Gewebe befreit und zur weiteren Fixation in 2,5% Glutaraldehyd in 0,1 M Cacodylat-Puffer eingelegt. […] Das mittlere Segment wurde für die morphologischen Untersuchungen verwendet.
# Semidünne Querschnitte (1 µm dick) wurden mit Toluidinblau und basischem Fuchsin gefärbt.
# Aus diesen Messungen wurden folgende Parameter berechnet: • (6) Die mittlere Dicke der Neointima in um, berechnet als Kreisring aus der Querschnittsfläche der Neointima. Hierzu wurde der Neointimaquerschnitt in einen Kreisring transformiert, dessen äussere Begrenzung die Lamina elastica interna bildete. • (7) Die Querschnittsfläche der Neointima zur Querschnittsfläche der Media in Prozent (normalisierte Neointimafläche) • (8) Der Prozentsatz der mit Neointima bedeckten Lamina elastica interna.
# [3] = versus untreated control animals, about 10 mg/kg daily in feed, 14 days after ballooning
compound,measurement,setting,value
CCOC(=O)[C@H](CCc1ccccc1)N[C@H]1CCCN2CCC[C@@H](C(=O)O)N2C1=O [Cilazapril],Senkung des systolischen Blutdrucks,[1],ca. 25%
same,Mittlere Dicke der Neointima,"[2]; calculated as circular ring from the neointima cross-sectional area, mean ± SD, n = 11, about 10 mg/kg daily in feed, 14 days after ballooning, controls 50 ± 25",8±7 µm
same,Querschnittsfläche des Lumens,"[2]; mean ± SD, n = 11, about 10 mg/kg daily in feed for 20 days, 14 days after ballooning, untreated controls 324 x 10^3",468 x 10^3±114 x 10^3 µm^2
same,Prozentsatz von mit Neointima bedeckter Lamina elastica interna,"[2]; mean ± SD, n = 11, about 10 mg/kg daily in feed, 14 days after ballooning, controls 93 ± 15",35±29%
same,Querschnittsfläche der Neointima,"[2]; mean ± SD, n = 11, cilazapril about 10 mg/kg daily in feed for 20 days, ballooning on day 6, left carotid fixed 14 days after ballooning, untreated controls 109 x 10^3",20 x 10^3±18 x 10^3 µm^2
same,Verhältnis von Querschnittsfläche der Neointima zu Querschnittsfläche der Media,"[2]; normalised neointima area, mean ± SD, n = 11, about 10 mg/kg daily in feed, 14 days after ballooning, controls 101 ± 43",23±21%
same,Tiere mit vollständig gehemmter Neointimabildung,"[2]; number of treated animals out of 11, about 10 mg/kg daily in feed, 14 days after ballooning",3 von 11
same,Hemmung (Querschnittsfläche der Neointima),[2]; [3],82%
same,Hemmung (mittlere Dicke der Neointima),[2]; [3],84%
